Drawing on patent EP1431280A1, “ARYL SULFAMATE DERIVATIVES” (Kyowa Hakko Kogyo Co., Ltd, priority 2001, dated 2003), this text covers IC50 for ten molecules.

The target of the experiment is T1, recombinant human estrone sulfatase (Homo sapiens, UniProt P08842).
T1 construct: made in house; host or cells: Chinese Hamster Ovary (CHO) cells
T1 sequence (P08842 22-583): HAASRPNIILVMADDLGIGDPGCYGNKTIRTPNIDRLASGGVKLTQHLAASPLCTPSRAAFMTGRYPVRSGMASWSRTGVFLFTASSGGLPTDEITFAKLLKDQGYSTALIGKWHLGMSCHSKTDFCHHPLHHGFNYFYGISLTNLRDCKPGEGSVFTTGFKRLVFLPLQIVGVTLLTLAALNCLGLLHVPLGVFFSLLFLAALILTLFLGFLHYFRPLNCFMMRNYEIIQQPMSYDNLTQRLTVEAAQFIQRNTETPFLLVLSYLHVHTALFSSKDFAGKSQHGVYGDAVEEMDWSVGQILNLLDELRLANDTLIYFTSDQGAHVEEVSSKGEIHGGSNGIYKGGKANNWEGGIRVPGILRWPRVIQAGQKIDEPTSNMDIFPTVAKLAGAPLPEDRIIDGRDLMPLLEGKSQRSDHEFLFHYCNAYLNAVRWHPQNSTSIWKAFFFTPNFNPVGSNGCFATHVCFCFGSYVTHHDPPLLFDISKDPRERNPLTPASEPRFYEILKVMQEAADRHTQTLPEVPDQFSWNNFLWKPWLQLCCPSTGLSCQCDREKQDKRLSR
Kind of experiment: Test for inhibition of estrone sulfatase (steroid sulfatase). Type of experiment: biochemical. To be noted: 4-methylumbelliferyl sulfate 0.3 mmol/L, phosphate buffer pH 7.5, 37 °C, 1 hour, fluorescence of 4-methylumbelliferone; read-out: IC50, inhibitory activity against steroid sulfatase. On the procedure: 4-Methylumbelliferyl sulfate (final concentration 0.3 mmol/L), recombinant human estrone sulfatase (7.8 ng/well), and each solution of the test compound having each test concentrations (test compound was dissolved in 0.001 mL of DMSO) were added to a phosphate buffer (pH 7.5) (final volume 0.1 mL) containing 0.28 mol/L sucrose and 0.04 mol/L nicotinamide. An enzyme reaction was conducted at 37 °C for 1 hour. The human estrone sulfatase gene was introduced into Chinese Hamster Ovary (CHO) cells, and the recombinant human estrone sulfatase was expressed, then it was used after partial purification. After completing the enzyme reaction, 2 mol/L glycine-sodium hydroxide solution (pH 10.3) (0.13 mL) was added and stirred. Using a fluorescent plate reader (Cyto Fluor II), the fluorescent strength of the generated 4-methylumbelliferone was measured. The measurements were conducted in duplicate at the same time. The fluctuations within the assay were within 10%. An enzyme reaction without the presence of a test compound was conducted at the same time. The inhibitory activity against estrone sulfatase for each concentration of the test compounds was calculated using the following equation. • A: Amount of 4-methylumbelliferone when test compound is present • B: Amount of 4-methylumbelliferone when test compound is not present [formula]
The inhibitory activity against estrone sulfatase of the aryl sulfamate derivative can be expressed as the concentration (IC50) of aryl sulfamate derivative at which the estrone sulfatase activity in the presence of the aryl sulfamate derivative is half of that when no test compound is added.

Bounds are passed on as bounds.

Regarding `CCCCCCCCCNC(=O)C(C#N)=Cc1ccc(OS(N)(=O)=O)cc1` [Compound 5], the 50% inhibitory concentration (IC50) worked out at 14 nM.

As to `CCCCCCCNC(=O)C(C#N)=Cc1ccc(OS(N)(=O)=O)cc1` [Compound 6], the IC50 came out at 12 nM.

For `CCCCCCCCNC(=O)/C(C#N)=C(\C)c1ccc(OS(N)(=O)=O)cc1` [Compound 15], the concentration for half-maximal inhibition (IC50) is less than 12 nM. The same measure for `CCCCCCCNC(=O)C(C#N)=C(C)c1ccc(OS(N)(=O)=O)cc1` [Compound 16]: less than 12 nM; for `CCCCCCCCCNC(=O)C(C#N)=C(CC)c1ccc(OS(N)(=O)=O)cc1` [Compound 17]: 17 nM.

For the molecule `CCCCCCCCCNC(=O)C(C#N)=C(CF)c1ccc(OS(N)(=O)=O)cc1` [Compound 19], the IC50 came to 35 nM. The same measure for `CCCCCCCCCNC(=O)C(C#N)=C(O)c1ccc(OS(N)(=O)=O)cc1` [Compound 22]: less than 12 nM; for `CCCCCCCCCNC(=O)C=C(C#N)c1ccc(OS(N)(=O)=O)cc1` [Compound 47]: 44 nM; for `CCCCCCCCCNC(=O)C#Cc1ccc(OS(N)(=O)=O)cc1` [Compound 57]: 99 nM. For the molecule `CCCCCCCCCNC(=O)CC(=O)c1ccc(OS(N)(=O)=O)cc1` [Compound 58], the IC50 turned out to be 31 nM.

As usually defined, the IC50 is the concentration needed to halve the response being measured.
